Results on 49 compounds are retold here after PubChem BioAssay AID179 (DTP/NCI, 2004).

The test system of the assay is CEM cells HIV-1 protection, formazan growth assay. Description: NCI AIDS Antiviral Assay. The note with it: for IC50: measured here: growth of uninfected CEM cells. Summed up: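 Five concentrations of each compound were applied to infected and uninfected human CEM cells. Protection from HIV-1 was judged from growth measured with a soluble formazan assay.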

As usually defined, the EC50 is the concentration at which the effect is half-maximal. For orientation: IC50 means the point on the concentration scale where inhibition reaches its midpoint. A low value points to inhibition by little substance.

Active and inactive are the calls of the source.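 The calls were made as follows: active = compounds giving half or more protection of infected cells from virus-caused growth loss, again on retest; inactive = the rest.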 Where a SMILES comes first, the peptide text is derived from it. The star is where a group is joined. OBn = c1ccc(CO*)cc1

Consider `COC1=CC23C=CC1[C@@H](c1ccccc1)C2=C(C)C(=O)N3C(=O)NC1CCCCC1` (stereo not given in full), for which the EC50 was greater than 12.9 µM and the IC50 is greater than 12.9 µM.

As for `CCOC(=O)C1(C/C=C/CBr)Cc2ccccc2C1=O` (stereo not given), the EC50 was greater than 200 µM and the 50% inhibitory concentration (IC50) amounted to 1.66 µM.

Turning to `CN1C(=S)CSc2ccccc21`, the EC50 was greater than 182 µM and the 50% inhibitory concentration (IC50) was greater than 182 µM.

`NC(CCC(=O)OCc1ccccc1)C(=O)NC(CCC(=O)OCc1ccccc1)C(=O)O` (stereo not given) (H-Glu(OBn)-Glu(OBn)-OH; configuration not given here): the EC50 is greater than 1000 µM and the IC50 is greater than 1000 µM.

Turning to `CCCC/C=C(/CCCNCCCC)[Si](C)(C)C`, the EC50 was greater than 479 µM and the IC50 stood at 240 µM.

For `CCCCCCCCCCCCCCCCOC1OC(CBr)C(O)C(O)C1O` (stereo not given), the EC50 is greater than 8.13 µM and the IC50 is greater than 8.13 µM.

`O=c1c2ccccc2c(=O)n2n1C1C=CC2C1`: the EC50 is greater than 44.7 µM and the IC50 was greater than 44.7 µM.

Consider `CCCN=Cc1c(O)c(O)c(C(C)C)c2cc(C)c(-c3c(C)cc4c(C(C)C)c(O)c(O)c(C=NCCC)c4c3O)c(O)c12`, for which the EC50 is greater than 6.31 µM and the IC50 is 1.15 µM.

For `CNC(C)(C)C(SSSC(c1ccc(Cl)cc1)C(C)(C)NC)c1ccc(Cl)cc1` (stereo not given), the EC50 is greater than 200 µM and the IC50 was 3.55 µM.

On to `Nc1c(N=Nc2ccc(/C=C/c3ccc(N=Nc4cc(S(=O)(=O)O)c5ccccc5c4N)cc3S(=O)(=O)O)c(S(=O)(=O)O)c2)cc(S(=O)(=O)O)c2ccccc12`, for which the EC50 is 8.71 µM and the concentration for half-maximal inhibition (IC50) was determined as 77.6 µM.

With `COC(=O)C1(C)C=CC(=O)C2(C)C1C(O)C1OC3CC(c4ccoc4)C(C)=C3C1(C)C2CC(=O)O` (stereo not given), the EC50 was greater than 490 µM and the 50% inhibitory concentration (IC50) was greater than 490 µM.

Turning to `COC(Cc1cc(C(O)(c2ccc(C(C)(C)C)cc2)c2cc(CC(OC)(c3cc(C(OC)(c4ccc(C(C)(C)C)cc4)c4ccc(C(C)(C)C)cc4)c(C)cc3C)c3cc(C(OC)(c4ccc(C(C)(C)C)cc4)c4ccc(C(C)(C)C)cc4)c(C)cc3C)c(C)cc2C)c(C)cc1C)(c1cc(C(OC)(c2ccc(C(C)(C)C)cc2)c2ccc(C(C)(C)C)cc2)c(C)cc1C)c1cc(C(OC)(c2ccc(C(C)(C)C)cc2)c2ccc(C(C)(C)C)cc2)c(C)cc1C`, the result was inactive.

`CCN(CC)CCOC(=O)C(c1ccccc1)c1ccccc1`: the EC50 was greater than 200 µM and the IC50 was greater than 200 µM.

In the case of `CN(C)c1ccc(C(C=C2c3ccccc3Sc3ccccc32)=C(C#N)C#N)cc1`, the result was inactive.

Take `O=c1c2ccccc2sc2cccc(NCCCN3CCN(CCCNc4cccc5sc6ccccc6c(=O)c45)CC3)c12`: the EC50 is greater than 100 µM and the IC50 is greater than 100 µM.

As for `Cc1nc(Nc2ccc(Cl)cc2)sc1C(=O)NNC(=S)NN`, the EC50 is greater than 83.2 µM and the IC50 was 33.1 µM.

On to `OCCCN(CCO)CCN(CCCO)CCCO`, for which the EC50 was greater than 200 µM and the IC50 was greater than 200 µM.

With `Cc1nc(C)c(N2CCN(S(=O)(=O)N(Cc3ccccc3)Cc3ccccc3)CC2)c(=O)[nH]1`, the EC50 was greater than 200 µM and the IC50 was greater than 200 µM.

`COC(=O)CSSCc1ccc([N+](=O)[O-])cc1`: the EC50 is greater than 200 µM and the IC50 is 3.47 µM.

Regarding `CSC1=N/C(=C\c2ccc(C)cc2)C(=O)N1`, the EC50 is greater than 200 µM and the IC50 amounted to 178 µM.

Turning to `CC(=O)Nc1ccc(-c2nnc(SCC(=O)Nc3ccc(Cl)cc3Cl)o2)cc1`, the EC50 was greater than 42.7 µM and the IC50 came out at 25.1 µM.

For the compound `O=C(/N=C1/OC(CN2CCOCC2)CN1C(=O)Nc1ccccc1)Nc1ccccc1` (stereo not given), the EC50 is greater than 200 µM and the half-maximal inhibitory concentration (IC50) is greater than 200 µM.

In the case of `N#C/C(=C/n1c(=S)[nH]c2ccc([N+](=O)[O-])cc21)C(N)=O`, the EC50 was greater than 200 µM and the concentration for half-maximal inhibition (IC50) is greater than 200 µM.

On to `C=C1CCCCCCCCCCC12SCCC2CCCCSC` (stereo not given), for which the EC50 is greater than 200 µM and the IC50 was 120 µM.

For the compound `O=C(Cc1ccccc1)NN1C(=O)C(Cl)C1c1ccc(Cl)cc1` (stereo not given), the EC50 was greater than 102 µM and the IC50 is greater than 102 µM.

Turning to `Nc1ccccc1C(=O)CCC1C(=O)NC(=S)NC1=O`, the EC50 was greater than 6.92 µM and the IC50 is greater than 6.92 µM.

Regarding `OCc1cn(C(c2ccccc2)(c2ccccc2)c2ccccc2)cn1`, the EC50 was 195 µM and the IC50 was greater than 200 µM.

`c1ccc(OCc2nn3c(-c4ccccc4)nnc3s2)cc1`: the EC50 is greater than 200 µM and the IC50 is greater than 200 µM.

As to `COc1ccc(NC(=O)CC(=O)N2N=C(c3ccccc3)C(N=Nc3ccc(S(=O)(=O)CCOS(=O)(=O)O)cc3)C2=O)cc1` (stereo not given), the EC50 is greater than 200 µM and the IC50 is greater than 200 µM.

On to `COc1c(Cl)cc(C(=CCCCCN(C(=O)C=C(c2cc(Cl)c(OC)c(C(=O)O)c2)c2cc(Cl)c(OC)c(C(=O)O)c2)[C@H]2CC[C@@]3(C)[C@@H](CC[C@@H]4[C@@H]3CC[C@]3(C)[C@@H](C(C)CCCC(C)C)CC[C@@H]43)C2)c2cc(Cl)c(OC)c(C(=O)O)c2)cc1C(=O)O` (stereo not given in full), for which the EC50 was 12.9 µM and the IC50 amounted to 81.3 µM.

For `COc1ccc(-c2oc3cc(-c4cc5oc(-c6ccc(OC)cc6)c(-c6ccc(OC)cc6)c5cc4OC)c(OC)cc3c2-c2ccc(OC)cc2)cc1`, the EC50 is greater than 200 µM and the half-maximal inhibitory concentration (IC50) is greater than 200 µM.

In the case of `O=C(/C=C\c1cccc(C(F)(F)F)c1)c1ccccc1`, the result was inactive.

`Cc1ccccc1C=C1C(=O)NC(=O)NC1=O`: the EC50 was greater than 407 µM and the IC50 was greater than 407 µM.

Turning to `Nc1c(-c2nc3ccccc3s2)[n+]([O-])c2ccccc2[n+]1[O-]`, the result was inactive.

Consider `O=C(O)C1CC1`, for which the outcome was inactive.

As to `O=C1OC(CC(=O)c2ccc(Cl)cc2Cl)C(Cl)=C1Cl` (stereo not given), the EC50 was greater than 148 µM and the IC50 was 53.7 µM.

On to `O=c1nc2ccccc2c2n1CCN2`, for which the EC50 is greater than 95.5 µM and the IC50 was greater than 95.5 µM.

In the case of `CCCCCCCCCCCCOC1C(COCCN2CCCCC2)OC2OC(C)(C)OC21` (stereo not given), the EC50 was greater than 200 µM and the IC50 turned out to be 2.63 µM.

As for `Cc1cc(Cl)ccc1NC(=O)C(=O)C(C(=O)c1ccc2ccccc2c1)C1OC(=O)c2ccccc21` (stereo not given), the EC50 was greater than 52.5 µM and the IC50 amounted to 25.1 µM.

For the compound `CCOC(=O)c1c(N)ssc1=S`, the EC50 was 87.1 µM and the IC50 turned out to be 158 µM.

Take `O=C(Cc1nc2sc3c(c2c(=O)[nH]1)CCCC3)Nc1ccccc1`: the outcome was inactive.

Consider `CC(=O)N1CC2Nc3ccccc3C2CC1CO` (stereo not given), for which the result was inactive.

Take `Cc1c(N2CCN(C)CC2)nc2ccc(Cl)cc2c1-c1ccccc1`: the EC50 is greater than 14.8 µM and the IC50 is greater than 14.8 µM.

For `N#Cc1c2n(c(=S)n(-c3ccccc3)c1=O)CCCCCCC2`, the EC50 is greater than 200 µM and the IC50 was 162 µM.

Turning to `Cc1ccc(C)c(N2C(=O)C(=O)C(c3nc4ccccc4s3)C(=Nc3cccc4c(=O)[nH][nH]c(=O)c34)C2=O)c1` (stereo not given), the outcome was inactive.

Consider `CCN(CCO)c1ccc(N=O)cc1`, for which the EC50 was greater than 200 µM and the half-inhibitory concentration (IC50) came to 11.5 µM.

As to `CCC1NC2CC3(C(=O)N(OC)c4ccccc43)C3CC1C2CO3` (stereo not given), the EC50 is greater than 269 µM and the 50% inhibitory concentration (IC50) is greater than 269 µM.

On to `CCCCCCCCCCCCCCCCOP(=O)([O-])OCC[N+](C)(C)C`, for which the EC50 is greater than 309 µM and the IC50 was 2.45 µM.

Consider `COc1ccc(-c2oc3ccccc3c(=O)c2O)cc1OC`, for which the EC50 is greater than 200 µM and the IC50 stood at 138 µM.
